Experimental data from patent US7592424B2, “Ion channel-like polypeptide and use thereof” (Kyoto University, priority 2004, dated 2009).

Biological target: Ciona intestinalis Ci-VSP cytoplasmic domain (phosphatase domain, residues 248-576 of Ci-VSP, SEQ ID NO: 2), wild type, GST fusion protein (GST-Ci-VSP) (Ciona intestinalis, UniProt Q4W8A1)
Experiment: Malachite green assay of phosphoinositide phosphatase activity at various PIP3 concentrations, Michaelis-Menten fit
Type: biochemical
Conditions: substrate PIP3, initial rate V0 at t=0, Michaelis-Menten fit (FIG. 4c)
Description: To express N-terminal fused protein of the cytoplasmic domain of Ci-VSP with the GST gene, the cDNA encoding residues 248-576 of Ci-VSP was subcloned into the EcoRI-XhoI site of pGEX4T3 (Amersham Pharmacia). GST-fused protein was expressed and purified from E. coli JM109 with glutathione-sepharose CL-4B (Amersham Pharmacia). Phosphatase activity of Ci-VSP was measured with the methods previously adopted for PTEN phosphatase.
To see whether the Ci-VSP has phosphatase activity that uses PI(3, 4, 5)P3 as a substrate, a fusion protein of GST and the whole C-terminal cytoplasmic region of Ci-VSP was synthesized. FIG. 3b represents phosphoinositide phosphatase activity of the fusion protein of glutathione s-transferase and the phosphatase-like domain of Ci-VSP by a malachite green assay using PI(3, 4, 5)P3 as a substrate. […] BIOMOL GREEN™ reagent (Biomol, Plymouth Meeting, Pa.) was added to the sample and […] was measured by using H2O as a reference. […]
Enzyme activity of Ci-VSP was examined with thin layer chromatography (TLC). […] Where there is enzyme activity using PI(3, 4, 5)P3 as a substrate, the degraded product PIP2(NBD6-diC6-PI(4, 5)P2) is detected. […]
Malachite green imparts pale yellow in the absence of inorganic phosphate. […] Thus, by measuring absorbance of malachite green at 620 nm, the inorganic phosphate that is generated by the degradation of PI(3, 4, 5)P3 to PI(4, 5)P2 can be quantified. […]

Sequence of Ciona intestinalis Ci-VSP cytoplasmic domain (phosphatase domain, residues 248-576 of Ci-VSP, SEQ ID NO: 2), wild type, GST fusion protein (GST-Ci-VSP) (Q4W8A1 entry or part of it): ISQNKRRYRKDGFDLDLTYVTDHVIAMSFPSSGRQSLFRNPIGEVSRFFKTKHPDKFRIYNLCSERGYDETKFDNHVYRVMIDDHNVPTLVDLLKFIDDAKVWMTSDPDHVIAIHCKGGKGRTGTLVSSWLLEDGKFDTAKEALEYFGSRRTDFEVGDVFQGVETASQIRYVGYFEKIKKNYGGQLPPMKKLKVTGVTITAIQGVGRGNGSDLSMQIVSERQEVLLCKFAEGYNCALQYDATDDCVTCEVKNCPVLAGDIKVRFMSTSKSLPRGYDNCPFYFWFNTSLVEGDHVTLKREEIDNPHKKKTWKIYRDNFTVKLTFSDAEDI

PIP3
Vmax (maximum rate): 0.292 nmol/min/µg
Km (read-out: Km (substrate concentration required for 1/2 Vmax)): 36 µM
